Test results reported in the supplement of paper PMC5722580.

Key:
HEK293-SIE STAT3 WT = assay: drug sensitivity score (inhibition of STAT3 luciferase reporter); higher = stronger inhibition; conditions: 6 h; STAT3: WT; IL6 100 ng/ml
Outline: (§1)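 HEK293 cells with a STAT3-responsive sis-inducible element luciferase reporter, stably transduced by lentivirus with wild-type or mutant STAT3, were dispensed at 10 000 cells/well into 384-well drug plates. Wild-type cells received IL6 (100 ng/ml). Drugs were tested at 5-8 concentrations over a 10 000-fold range for 6 h, and luciferase was read with ONE-Glo on a PHERAstar FS. Drug sensitivity score is an optimized area under the reporter-inhibition dose-response curve, averaged over two experiments.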

HEK293-SIE STAT3 Y640F = assay: as above; conditions: 6 h; IL6 0 ng/ml
Outline: as §1

KAI3 = assay: drug sensitivity score (viability inhibition); higher = more sensitive; conditions: 72 h; IL2 2.5 ng/ml
Outline: (§2)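 Drug sensitivity score is an optimized area under the dose-response curve. NK cell lines were seeded at 3 000 cells/well in complete RPMI containing 2.5 ng/ml IL2 into 384-well drug plates with 5-8 concentrations spanning a 10 000-fold range. Cells were kept 72 h at 37 °C, 5% CO2, and viability was then measured with CellTiter-Glo on a PHERAstar FS plate reader. The experiment was repeated twice.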

SNK6 = assay: as above; conditions: 72 h; IL2 2.5 ng/ml
Outline: as §2

KHYG-1 = assay: as above; conditions: 72 h; IL2 2.5 ng/ml
Outline: as §2

NK-YS = assay: as above; conditions: 72 h; IL2 2.5 ng/ml
Outline: as §2

NKL = assay: as above; conditions: 72 h; IL2 2.5 ng/ml
Outline: as §2

NK-92 = assay: as above; conditions: 72 h; IL2 2.5 ng/ml
Outline: as §2

YT = assay: as above; conditions: 72 h; IL2 2.5 ng/ml
Outline: as §2

Row | Compound | drug sensitivity score (HEK293-SIE STAT3 WT) | drug sensitivity score (HEK293-SIE STAT3 Y640F) | drug sensitivity score (KAI3) | drug sensitivity score (SNK6) | drug sensitivity score (KHYG-1) | drug sensitivity score (NK-YS) | drug sensitivity score (NKL) | drug sensitivity score (NK-92) | drug sensitivity score (YT)
1 | N#C/C(=C\c1ccc(O)c(O)c1)C(=O)NCc1ccccc1 [AG490] | 1.18 DSS | 1.9 DSS | 8.31 DSS | 10.2 DSS | 8.13 DSS | 13.3 DSS | 10.3 DSS | 9.21 DSS | 8.84 DSS
2 | CC(C)NC[C@@H](C(=O)N1CCN(c2ncnc3c2[C@H](C)C[C@H]3O)CC1)c1ccc(Cl)cc1 [GDC-0068] | 4.1 DSS | 0.85 DSS | 0 DSS | 1.47 DSS | 3.15 DSS | 1.41 DSS | 1.24 DSS | 0.75 DSS | 0.319 DSS
3 | NS(=O)(=O)c1cccc2c1C(=O)c1cccc(O)c1C2=O [LLL12] | 17.1 DSS | 12.4 DSS | 18.9 DSS | 28 DSS | 22.9 DSS | 15 DSS | 24.9 DSS | 23.1 DSS | 18.2 DSS
